# In ChEMBL document CHEMBL4765305, “Elephantopinolide A-P, germacrane-type sesquiterpene lactones from Elephantopus scaber induce apoptosis, autophagy and G2/M phase arrest in hepatocellular carcinoma cells” (Eur J Med Chem, 2020):
# Legend:
# [1] = test system: HepG2; test: Anti-hepatoma activity against human HepG2 cells assessed as cell growth inhibition by MTT assay; assay type: functional, cell-based
# [2] = test system: Hep 3B2; test: Anti-hepatoma activity against human Hep3B cells assessed as cell growth inhibition by MTT assay; assay type: functional, cell-based
IC50 [1] [µM],Structure (SMILES),IC50 [2] [µM]
> 20,COC[C@@H]1C(=O)O[C@H]2[C@H]1[C@@H](O)CC1=C[C@H](C[C@@]3(C)O[C@@H]23)OC1=O,> 20
> 20,C=C1C(=O)O[C@H]2CC3=C[C@@H](C[C@@](C)(O)/C=C/[C@H]12)OC3=O,> 20
2.55,C=C(C)C(=O)O[C@H]1CC2=C[C@H](C[C@@]3(C)O[C@H]3[C@H]3OC(=O)C(=C)[C@@H]31)OC2=O,4.26
> 20,C=C(C)C(=O)O[C@H]1CC2=C[C@@H](C[C@@](C)(O)/C=C/[C@@H]1C(=C)C(=O)OC)OC2=O,> 20
